Holding throughout (test): NCI anticancer screen, dose series, 48 h
Assay [1] concerns HOP-62.
For assay [2], the system named is UACC-257.
The subject of assay [3] is SF-295.
The subject of assay [4] is T47D.
Assay [5] deals with MOLT-4.
Assay [6] concerns HCT-15.
The subject of assay [7] is SW-620.
Assay [8] relates to 786-0.
The subject of assay [9] is SK-OV-3.
Assay [10] concerns IGROV-1.
The test system of assay [11] is MDA-N.
For assay [12], the system named is OVCAR-5.
Assay [13] concerns SN12C.
Assay [14] concerns TK-10.
In assay [15] the test system is UACC-62.
Assay [16] relates to OVCAR-8.
Assay [17] relates to NCI-H23.
In assay [18] the test system is A498.
For assay [19], the system named is Malme-3M.
The test system of assay [20] is HT-29.

This is an account of results in ChEMBL document CHEMBL1201862, “PubChem BioAssay data set” (2004).

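The compound was tested at five concentrations on cells cultured in 96-well plates, with a 48-hour exposure period. The concentration for 50% growth inhibition is given as GI50.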 The source made the active and inactive calls. Cut-off read from the data, not from the text of the source: active = GI50 up to about 1.1 µM and inactive = higher. Where a SMILES comes first, the peptide text is derived from it. [ ]: non-standard residue; d: D form. The star is where a group is joined. ξ: configuration not given here. ξD = NC(CC(=O)O)C(=O)O; Boc = CC(C)(C)OC(=O)*; Aib = CC(C)(N)C(=O)O; OBn = c1ccc(CO*)cc1

For `c1ccc(-c2cn3c(nc4ccccc43)c(-c3ccccc3)n2)cc1`, the GI50 in assay [1] was 7.13 µM (inactive); in assay [2], > 100 µM (inactive); in assay [3] it was 14.8 µM (inactive); in assay [4], > 39.6 µM (inactive); in assay [5], > 100 µM (inactive); in assay [6], more than 100 µM. For the same compound, the GI50 in [7] was > 100 µM (inactive); in [8], 16.1 µM (inactive); in [9], 10.2 µM (inactive); in assay [10], 42.9 µM (inactive); in assay [11] it was > 31.6 µM (inactive); in [12], > 54.2 µM (inactive). For the same compound, the GI50 is 65.8 µM (inactive) in assay [13]; > 59.6 µM (inactive) in assay [14]; 12.4 µM (inactive) in assay [15]; 13.3 µM (inactive) in [16]; 55.2 µM (inactive) in [17]; 44.6 µM (inactive) in assay [18]. Besides, the GI50 is > 96.2 µM (inactive) in assay [19] and 71 µM (inactive) in assay [20].
As for `OC1(c2ccc3ccccc3c2)c2c(c3ccccc3c3ccccc23)C2=NCCN21` (configuration not stated), the GI50 is 9.33 µM (inactive) in assay [1]; 18.5 µM (inactive) in assay [2]; 3.09 µM (inactive) in assay [3]; 4.45 µM (inactive) in [4]; 4.81 µM (inactive) in [5]; 4.63 µM in [6]. In addition, the GI50 in [7] was 3.34 µM (inactive); in assay [8], 7.5 µM (inactive); in assay [9], 6.68 µM (inactive); in assay [10], 3.85 µM (inactive); in assay [11], 1.96 µM (inactive); in assay [12] it was 7.78 µM (inactive). For the same compound, the GI50 in [13] was 9.2 µM (inactive); in assay [14], 7.98 µM (inactive); in [15] it was 13.5 µM (inactive); in assay [16], 4.44 µM (inactive); in [17], 12.1 µM (inactive); in assay [18] it was 12.1 µM (inactive). Further, the figures for the GI50 in assay [19] and in [20] were 10.4 µM (inactive) and 2.8 µM (inactive), respectively.
For the compound `CC(C)(C)OC(=O)NC(CC(=O)OCc1ccccc1)C(=O)NC(C)(C)C(N)=O` (configuration not stated) (Boc-[ξD](OBn)-[Aib]-NH2), the GI50 in assay [1] is > 100 µM (inactive); in assay [2] it was > 100 µM (inactive); in assay [3], > 100 µM (inactive); in assay [4], > 100 µM (inactive); in [5] it was > 100 µM (inactive); in assay [6], more than 100 µM. The GI50 in assay [7], in [8], in [9], in [10], in assay [11] and in [12] was > 100 µM (inactive) throughout. Besides, the GI50 in assay [13] is > 100 µM (inactive); in assay [14] it was > 100 µM (inactive); in assay [15], 0.0204 µM (active); in [16] it was > 100 µM (inactive); in assay [17], > 100 µM (inactive); in assay [18], > 100 µM (inactive). Besides, the GI50 in assay [19] and in assay [20] was > 100 µM (inactive) in each case.
In the case of `CCOC(=O)N/N=C/C1=NN(C(=O)OCC)[S+]([O-])C1C` (configuration not stated), the GI50 in [1] was > 100 µM (inactive); in assay [2], > 100 µM (inactive); in assay [3], > 100 µM (inactive); in [4] it was > 100 µM (inactive); in assay [5] it was > 100 µM (inactive); in [6], more than 100 µM. In addition, the GI50 in assay [7], in assay [8], in [9], in assay [10], in assay [11] and in assay [12] was > 100 µM (inactive) throughout. In addition, the GI50 in assay [13], in assay [14], in assay [15], in assay [16], in assay [17] and in [18] was > 100 µM (inactive) throughout. In addition, the GI50 in [19] and in [20] was > 100 µM (inactive) each time.
Consider `N=C(N)NCCCC(=O)O`, for which the GI50 was > 100 µM (inactive) in [1]; > 100 µM (inactive) in [3]; > 100 µM (inactive) in assay [4]; > 100 µM (inactive) in assay [5]; more than 100 µM in assay [6]; > 100 µM (inactive) in assay [7]. For the same compound, the GI50 in [8], in assay [9], in assay [10], in assay [11], in [12] and in [13] was > 100 µM (inactive) each time. For the same compound, the GI50 in [14], in assay [15], in assay [16], in assay [17], in assay [18] and in [19] was > 100 µM (inactive) each time. In addition, in [20], the GI50 is > 100 µM (inactive).
Turning to `CC(C)(Oc1ccc(Cl)cc1)C(=O)N(C(=O)N1CCN(c2ccccc2)CC1)c1ccccc1`, the GI50 in [1] was > 100 µM (inactive); in assay [2], 5.62 µM (inactive); in [3] it was 33.2 µM (inactive); in assay [4] it was 5.48 µM (inactive); in assay [5], 4.12 µM (inactive); in assay [6], 6.61 µM. In addition, the GI50 is 8.93 µM (inactive) in assay [7]; 28.4 µM (inactive) in assay [8]; > 100 µM (inactive) in [9]; 62.8 µM (inactive) in assay [11]; > 100 µM (inactive) in assay [12]; 42.3 µM (inactive) in assay [13]. Also, the GI50 in [14] was 68.5 µM (inactive); in assay [15], 5.83 µM (inactive); in assay [16], > 100 µM (inactive); in assay [17] it was 8.83 µM (inactive); in [18], 84.9 µM (inactive); in assay [19], > 100 µM (inactive). Also, the GI50 in assay [20] was 6.25 µM (inactive).
With `CCCC(=O)N/S(=N/S(=O)(=O)c1ccc(Cl)cc1)C(Cl)(Cl)Cl` (configuration not stated), the GI50 is > 100 µM (inactive) in assay [1]; > 100 µM (inactive) in assay [3]; > 100 µM (inactive) in assay [4]; > 100 µM (inactive) in assay [5]; more than 100 µM in assay [6]; > 100 µM (inactive) in [7]. In addition, the GI50 in [8], in assay [9], in assay [10], in [11], in assay [12] and in [13] was > 100 µM (inactive) each time. The GI50 in assay [14], in assay [15], in assay [16], in assay [17], in [18] and in assay [19] was > 100 µM (inactive) throughout. Also, the GI50 in [20] was > 100 µM (inactive).
